According to patent US11603380B2 (Centre national de la recherche scientifique, priority 2018, dated 2023):
Like-named read-outs stand apart in the source and are kept apart here.

Experiments:
[1] = tested on: human cytomegalovirus (HCMV) (AD-169); test: microbe, parasite or virus in culture; assay type: cell-based; details: read-out: EC50 HCMV (AD-169)
Vaccinia Virus = test: microbe, parasite or virus in culture; assay type: cell-based; details: read-out: EC50 Vaccinia Virus
HSV-2 (G) = test: microbe, parasite or virus in culture; assay type: cell-based, herpes simplex virus 2; details: read-out: EC50 HSV-2 (G)
[2] = tested on: human cytomegalovirus (HCMV) (Davis); test: microbe, parasite or virus in culture; assay type: cell-based; details: read-out: EC50 HCMV (Davis)
in vitro = details: human, Cytotoxicity CC50
VZV-BAC-Luc = test: SCID-Hu mouse model of VZV replication (human fetal skin xenografts); assay type: in vivo, CB.17 scid/beige male mice; details: for VZV spread / virus yield (Total Flux) vs Vehicle: once daily Days 0-8, 5 26 mg/kg subcutaneous, cidofovir 10 mg/kg intraperitoneal, yield compared Day 9, p=0.0051
Protocol: SCID-Hu mouse model of VZV replication. CB.17 scid/beige male mice (Charles River) were implanted subcutaneously with human fetal skin (the same type of specimens used for the skin organ culture assay). After 3-4 weeks engraftment, the skin implants were inoculated with VZV-BAC-Luc or VZV-ORF57-Luc. The mice were divided into groups (N=10-13) for treatment or controls. The positive control antiviral drug was cidofovir, 10 mg/kg/day given by intraperitoneal injection. The negative control was the vehicle Cremophor-DMSO-saline (1:1:8) given by subcutaneous injection. The treatment groups were 5 in Cremophor-DMSO-saline, 26, 13, or 6.5 mg/kg/day, given by subcutaneous injection. Treatment began 2 hours or 3 days after the inoculation surgery and continued daily or alternating days for up to 9 days. The mice were scanned in the IVIS-200 instrument daily from Day 1-10. The mice were weighed before the start of the study and daily during the treatment phase.
Statistical analysis: The results were analyzed for statistical significance by Student's t test or by ANOVA and Dunnett's post hoc test of multiple comparisons (GraphPad Prism).
CB.17 scid/beige male mice were implanted subcutaneously with human fetal skin (the same type of specimens used for the skin organ culture assay). After 3-5 weeks engraftment period, the skin implants were inoculated with VZV-BAC-Luc. The mice were divided into 3 groups of 10-13 mice: vehicle (Cremophor-DMSO-saline 1:1:8), cidofovir 10 mg/kg in saline, and 5 26 mg/kg in Cremophor-DMSO-saline. 5 at 26 mg/kg is the molar equivalent dose to cidofovir 10 mg/kg. Cidofovir was given by the intraperitoneal route, once daily, from Days 0-8. Vehicle and 5 were given by the subcutaneous route, once daily, from Days 0-8. The mice were scanned in the IVIS-200 instrument daily from Day 1-9 and the Total Flux values indicated VZV-infected cells in the skin xenografts (FIG. 3). […] VZV grew normally in the Vehicle group.
In addition, a dose-ranging and delayed treatment assay was included to determine the lowest effective dose (FIGS. 5A and 5B). As before, 5 26 mg/kg was given once daily, by the subcutaneous route, from Days 0-6. This group was compared to Vehicle (Cremophor-DMSO-saline). In the dose ranging assay, 5 high dose (26 mg/kg), medium dose (13 mg/kg) or low dose (6.5 mg/kg) was given once daily, by the subcutaneous route, from Days 3-9. The treatment phase was delayed to Day 3 because this is more clinically relevant.

[3] = tested on: herpes simplex virus 1 (HSV-1) (KOS); test: microbe, parasite or virus in culture; assay type: cell-based; details: read-out: EC50 HSV-1 (KOS)
HSV-1 (KOS ACV) TK− = test: microbe, parasite or virus in culture; assay type: cell-based, herpes simplex virus 1
[4] = tested on: VZV-BAC-Luc TK− strain (ACV^R); test: microbe, parasite or virus in culture; assay type: cell-based, varicella zoster virus; details: read-out: approximate EC50, ACV^R VZV
[5] = Weight and condition of mice during treatment in the SCID-Hu model; details: for change in weight during the treatment phase: first study, Days 0-8, 5 26 mg/kg sc, cidofovir 10 mg/kg ip
[6] = tested on: VZV-BAC-Luc strain (wild type); test: microbe, parasite or virus in culture; assay type: cell-based, varicella zoster virus; details: read-out: approximate EC50, wild type VZV
[7] = tested on: VZV-BAC-Luc in human fetal skin; test: Human skin organ culture model of VZV replication; assay type: cell-based, varicella zoster virus; details: for VZV yield in skin organ culture compared to vehicle: Day 11, cidofovir 5 μM, 5 at 1 and 5 μM (p<0.0001 vs vehicle)
HBV = test: Anti-HBV activity, Huh7 cells transfected with pHBV1.1×, intra-capsid viral DNA by real-time PCR; assay type: cell-based, Hepatitis B virus; details: 7 days, read-out: IC50 (HBV replication) (converted)
[8] = tested on: varicella-zoster virus (VZV) TK+ (OKA); test: microbe, parasite or virus in culture; assay type: cell-based; details: read-out: EC50 VZV TK+ (OKA)
Adeno virus = test: Virus infection assay, Adeno virus, permissive cells; assay type: cell-based
Protocol: (§1) 2. Virus Infection (Protocols for: Adeno Virus, Cytomegalo Virus, Poxvirus, Myxo Virus, Equine Herpes Virus)
(§2) Cognate permissive cell lines were used for each virus infection assay.
(§3) Cells were grown in DMEM without phenol red (Sigma-Aldrich) 10% SVF, Pen-strep, 1× sodium pyruvate, 1× Glutamax.
(§4) Virus infection was carried out on permissive cells seeded in either in 96 wells plate or in 6 well plates, in duplicate at one or two MOI (multiplicity of infection) and 7 concentrations of LA6. • Day 0: cells seeded at 10 k per well in Corning Glass Bottom 96 well plates in 200 μl of DMEM without phenol red or 200 k in 6 well plates. • Day 1: cells were treated with LA6 (from 1 to 0.0037 μM by […] dilutions) in duplicate and were infected at different MOI according to the tested virus • Day 2 to day 7: cells were fixed with Formalin 10 min at room temperature. Cells were washed with 200 μL PBS and 100 μL PBS/Hoechst® 33342 (1/1000) per well. 96 well plates were kept at 4° C. in the dark until data acquisition Image acquisition and analysis for high content quantification was performed on a Thermo Cellomics Arrayscan™ VTI microscope using a modified compartmental analysis algorithm for fluorescent virus. For unmodified virus, ECP progression or plaque count was determined visually by double blind analysis.

Equine Herpes V 1 = assay type: cell-based, Equine herpes virus
[9] = tested on: HSV-1, HSV-2, HSV-1 (TK−), VV, FHV; assay type: cell-based
HEL cells = details: read-out: Cytotoxicity CC50; concentration reducing cell growth by 50%; HCMV/VZV table
Feline Herpes Virus = test: organism not typed; assay type: cell-based; details: read-out: EC50 Feline Herpes Virus
Myxomatosis Virus (MYXV) = assay type: cell-based
Equine Herpes V 4 = test: Virus infection assay, Equine Herpes V 4, permissive cells; assay type: cell-based
Protocol: as §1, §2, §3, §4

Vaccinia Virus TK− = assay type: cell-based
[10] = Human alphaherpesvirus 3, ARPE-19, 72 h
[11] = ARPE-19 cells, 3 days, bioluminescence, estimated by interpolation

Nc1ccn(C[C@@H](CO)OCP(=O)(O)O)c(=O)n1 [Cidofovir, reference compound]
EC50 ([1]; Human betaherpesvirus 5, AD169, HEL): 1200 nM
EC50 (Vaccinia Virus; Orthopoxvirus vaccinia, HEL): 112000 nM
EC50 (HSV-2 (G); Human alphaherpesvirus 2, HEL): 1000 nM
Cytotoxicity MCC (HEL cell cultures; human): >100 µM
EC50 ([2]; Human betaherpesvirus 5, HEL): 1000 nM
CC50 (in vitro): > 100000 nM
VZV spread / virus yield (Total Flux) vs Vehicle (VZV-BAC-Luc): prevented VZV spread
EC50 ([3]; Human alphaherpesvirus 1, HEL): 4500 nM
EC50 (HSV-1 (KOS ACV) TK−; Human alphaherpesvirus 1, read-out: EC50 HSV-1 (KOS ACV) TK−): 2800 nM
EC50 [4, 10]: ~2500 nM
change in weight during the treatment phase [5]: moderate weight loss
EC50 [6, 10]: ~2500 nM
VZV yield in skin organ culture compared to vehicle [7]: effective

[(E)-2-[(2,6-diaminopyrimid in-4-yl)oxymethyl]-4-[3-hexadecoxypropoxy (isopropoxycarbonyloxymethoxy)phosphoryl]but-2′-enyl]acetate [Compound 13]
IC50 (HBV): 1600 nM

[(Z)-2-[(2,6-diaminopyrimidin-4-yl)oxymethyl]-4-[3-hexadecoxypropoxy (isopropoxycarbonyloxymethoxy)phosphoryl]but-2′-enyl]acetate [Compound (5)]
EC50 [1]: 1790 nM
IC50 (HBV): 400 nM
EC50 [8]: 3.5 nM
EC50 (Vaccinia Virus): 115 ± 110 nM
EC50 (HSV-2 (G)): 15 nM
EC50 (Adeno virus): < 37 nM
EC50 (Adeno virus; text statement): < 37 nM
EC50 (Equine Herpes V 1): < 125 nM
activity level against HSV-1, HSV-2, HSV-1 (TK−), VV, FHV [9]: micromolar and sub-micromolar activities
EC50 ([9]; read-out: EC50 against both tested viruses): < 350 nM
Cytotoxicity MCC (HEL cell cultures): 60 µM
EC50 [2]: 700 nM
antiviral effect, delayed treatment, low dose (VZV-BAC-Luc; 6.5 mg/kg once daily subcutaneous Days 3-9, yield Day 10 p=0.029): equally effective
antiviral effect, delayed treatment, medium dose (VZV-BAC-Luc; 13 mg/kg once daily subcutaneous Days 3-9, yield Day 10 p=0.029): equally effective
Virus yield on Day 7 vs Vehicle (VZV-BAC-Luc; 26 mg/kg once daily subcutaneous Days 0-6, p=0.008): significantly less than the Vehicle group
antiviral effect, delayed treatment, high dose (VZV-BAC-Luc; 26 mg/kg once daily subcutaneous Days 3-9, yield Day 10 p=0.029): also effective
VZV spread / virus yield (Total Flux) vs Vehicle (VZV-BAC-Luc): prevented VZV spread
low dose effectively preventing VZV spread (VZV-BAC-Luc; once daily subcutaneous Days 3-9): 6.5 mg/kg
EC50 [3]: 43 ± 37 nM
CC50 (HEL cells): 660 nM
EC50 (Feline Herpes Virus): 350 nM
EC50 (HSV-1 (KOS ACV) TK−; read-out: EC50 HSV-1 (KOS ACV) TK−): 8 ± 2 nM
EC50 (Myxomatosis Virus (MYXV)): 51 nM
EC50 [4, 11]: ~10 nM
change in weight during the treatment phase [5]: did not cause weight loss
overt toxicity (weight and condition of the mice) ([5]; repeat and dose-ranging study, 6.5-26 mg/kg sc): did not cause overt toxicity
EC50 [6, 11]: ~10 nM
EC50 (Equine Herpes V 4): < 125 nM
EC50 (Vaccinia Virus TK−; read-out: EC50 Vaccinia Virus TK−): < 30 nM
EC50 (Vaccinia Virus TK−; read-out: EC50 vaccicnia virus TK-): < 30 nM
VZV yield in skin organ culture compared to vehicle [7]: effective
concentration preventing VZV spread in skin ([7]; skin organ culture): ≥ 1 µM
